The structures appear in SMILES notation.

These results are taken from ChEMBL document CHEMBL1128186, “Steroidal spiro-gamma-lactones that inhibit 17 beta-hydroxysteroid dehydrogenase activity in human placental microsomes” (J Med Chem, 1995).

A short description of this test: The compound was tested at a concentration of 1 uM for inhibitory activity against 17 beta-hydroxysteroid dehydrogenase from human placental microsomes.
In the case of `C[C@]12C=CC(=O)C=C1CCC1C2CC[C@@]2(C)C1CC[C@@]21CCC(=O)O1` (some centres undefined), the inhibition was 6%. As for `COc1ccc2c(c1)CC[C@@H]1[C@@H]2CC[C@@]2(C)[C@H]1CC[C@@]21CCC(=O)O1`, the inhibition is 55%. In the case of `C[C@]12CC[C@@]3(CCC(=O)O3)CC1CC[C@@H]1[C@@H]2CC[C@@]2(C)[C@H]1CC[C@@]21CCC(=O)O1` (some centres undefined), the inhibition stood at 11%. Consider `C[C@]12CC[C@@H]3c4ccc(O)cc4CC[C@H]3[C@@H]1CC[C@@]21CCC(=O)O1`, for which the inhibition amounted to 81%. For the compound `C[C@]12CCC(=O)CC1C(=O)C[C@@H]1[C@@H]2CC[C@@]2(C)[C@H]1CC[C@@]21CCC(=O)O1` (some centres undefined), the inhibition was found to be 28%. As to `C[C@]12CCC(=O)C=C1C(=O)CC1C2CC[C@@]2(C)C1CC[C@@]21CCC(=O)O1` (some centres undefined), the inhibition turned out to be 3%. Compound `C[C@]12CCC(=O)CC1CC[C@@H]1[C@@H]2CC[C@@]2(C)[C@H]1CC[C@@]21CCC(=O)O1` (some centres undefined) displayed an inhibition of 25%. Consider `C[C@]12CCC(=O)C=C1CC[C@@H]1[C@@H]2CC[C@@]2(C)[C@H]1CC[C@@]21CCC(=O)O1`, for which the inhibition is 3%. The compound `C[C@]12CC[C@@H]3c4ccc(OCc5ccccc5)cc4CC[C@H]3[C@@H]1CC[C@@]21CCC(=O)O1` gave an inhibition of 11%.

As a reminder, the inhibition is the share of the control response that was lost under treatment.
